Each structure is given as a SMILES string.

Results on two compounds are retold here after patent publication US12433867B2, “Pharmaceutical composition comprising FLT3 inhibitor and hypomethylating agent for treating acute myeloid leukemia” (HANMI PHARM. CO., LTD, priority 2019, dated 2025).

Test [1] concerns MOLM-13-Luc2 cell line. The experiment in a line: Mouse model xenografted with MOLM-13-Luc2 cell line, survival. The class given is in vivo. The note with it: NOG mouse, MOLM-13-Luc2 i.v.; Compound A 10 mg/kg/day oral once a day; azacitidine 3 mg/kg/day i.p. twice a week. Here is the method: A comparison of Compound A and azacitidine or an efficacy test of combination thereof was conducted in a mouse model xenografted with a MOLM-13-Luc2 cell line which is a MOLM-13 cell line genetically modified to express luciferase.
The MOLM-13-Luc2 cell line was injected to a tail vein of NOG mouse at 5×10^6 cells/0.1 mL/mouse, and allowed to grow.
Bioluminescence images of MOLM-13-Luc2 cells were measured using a Lumina III IVIS imaging system (PerkinElmer) and quantified using a Living image software (PerkinElmer). When measured, D-luciferin (D-luciferin) was intraperitoneally injected to mice, and imaging was were performed under anesthesia using isoflurane. Images were measured for a first group separation during the experiment, and then measured on a specific day according to the purpose of the test.
A control group orally received a DMSO/PEG400/DW (ratio=0.5/2/7.5, v/v) mixed solution once a day, and a Compound A group was orally administered once a day at a dose of 10 mg/kg/day. An azacitidine group which is a hypomethylating agent (HMA) group was intraperitoneally administered at a dose of 3 mg/kg/day twice a week (on day 1 and day 4 of the week). A combination group was orally administered with Compound A at a dose of 10 mg/kg/day once a day, and azacitidine was intraperitoneally administered at a dose of 3 mg/kg/day twice a week (on day 1 and day 4 every week). Each group received individual drugs until all subjects in each group died.
The Y-axis represents a percentage (%) of surviving mice (survival rate) in each experimental group, and the X-axis represents the number of days of administration.

For test [2], the system named is MOLM-13 (DSMZ no. ACC 554) cell line. In words: MOLM-13 cell growth inhibition (CellTiter-Glo), Compound A alone or combined with azacitidine. The format is cell-based. The protocol: By examining growth inhibition of an MOLM-13 (DSMZ no. ACC 554) cell line which was treated with, in combination, an FLT3 inhibitor, 5-chloro-N-(3-cyclopropyl-5-(((3R,5S)-3,5-dimethylpiperazin-1-yl)methyl)phenyl)-4-(6-methyl-1H-indol-3-yl)pyrimidin-2-amine (hereinafter, Compound A) and a hypomethylating agent (HMA), 4-amino-1-β-D-ribofuranosyl-1,3,5-triazin-2(1H)-one (hereinafter, azacitidine), an effect of combined treatment of the two drugs was tested. The MOLM-13 cell line cultured in an RPMI 1640 culture medium (RPMI=Rosewell Parker Memory Institute) supplemented with 20% FBS was inoculated at a density of 2×10^4 cells per well in a 96-well plate, and Compound A was subjected to ½ serial dilution at predetermined concentrations (e.g., 10 nM to 0.078 nM) using the same culture medium. […] To measure cell viability, a CellTiter-Glo® (CTG) assay was performed, and for result analysis, 50% cell growth inhibition (GI50) was calculated using a GraphPad Prism software.
A general note: Cellular ATP, detected with luciferase, serves as a proxy for viable cell number.

The subject of test [3] is Ba/F3 cells expressed in an FLT3 ITD/F691L xenografted mouse model. The experiment in a line: In vivo study, Ba/F3 FLT3 ITD/F691L xenografted mouse model.
In test [4] the test system is Ba/F3 cells expressed in an FLT3 ITD/D835Y xenografted mouse model. In words: In vivo study, Ba/F3 FLT3 ITD/D835Y xenografted mouse model.

On to `Nc1ncn([C@@H]2O[C@H](CO)[C@@H](O)[C@H]2O)c(=O)n1` [Azacitidine, 4-amino-1-β-D-ribofuranosyl-1,3,5-triazin-2(1H)-one, reference compound], for which, in test [1], the median survival period was determined as 16 days and the overall survival period amounted to 18 days. For the same compound, in test [2] (MOLM-13 cells), the “GI40 (concentration inhibiting MOLM-13 cell growth by about 40%)” value was found to be 800 nM.
Consider `Cc1ccc2c(-c3nc(Nc4cc(CN5C[C@@H](C)N[C@@H](C)C5)cc(C5CC5)c4)ncc3Cl)c[nH]c2c1` [Compound A, 5-chloro-N-(3-cyclopropyl-5-(((3R,5S)-3,5-dimethylpiperazin-1-yl)methyl)phenyl)-4-(6-methyl-1H-indol-3-yl)pyrimidin-2-amine], for which, in test [1], the median survival period is 17 days and the overall survival period worked out at 20 days. For the same compound, the “therapeutic effect / overcoming resistance caused by FLT3 mutations” value in test [3] is reported as “shows therapeutic effects”. Also, the GI50 in test [2] (Homo sapiens, 72 h, MOLM-13, incubation 3 days, CTG assay, combination with azacitidine at 800 nM, GI50 as Compound A concentration) is 2.5 nM. The “therapeutic effect / overcoming resistance caused by FLT3 mutations” value in test [4] was “shows therapeutic effects”.

By GI50 is commonly meant the concentration at which growth is held to half of that of the control.
